The text below walks through data of US6911445B2, “Antidepressant cycloalkylamine derivatives of heterocycle-fused benzodioxans” (Wyeth, priority 2002, dated 2005).

One test addresses T1, serotonin transporter (Rattus norvegicus, UniProt P31652).
T1 construct: displace ^3H-paroxetine from male rat frontal cortical membranes; from tissue; host or cells: male rat frontal cortex membranes
Description: Displacement of 3H-paroxetine from male rat frontal cortical membranes (serotonin transporter affinity). To be noted: read-out: 5-HT Transporter Affinity Ki. It counts as binding.

Another test has as its target T2, human 5HT1A receptors (Homo sapiens, UniProt P08908).
T2 construct: expressed in transfected cells; host or cells: CHO cells
T2 sequence (P08908 1-422): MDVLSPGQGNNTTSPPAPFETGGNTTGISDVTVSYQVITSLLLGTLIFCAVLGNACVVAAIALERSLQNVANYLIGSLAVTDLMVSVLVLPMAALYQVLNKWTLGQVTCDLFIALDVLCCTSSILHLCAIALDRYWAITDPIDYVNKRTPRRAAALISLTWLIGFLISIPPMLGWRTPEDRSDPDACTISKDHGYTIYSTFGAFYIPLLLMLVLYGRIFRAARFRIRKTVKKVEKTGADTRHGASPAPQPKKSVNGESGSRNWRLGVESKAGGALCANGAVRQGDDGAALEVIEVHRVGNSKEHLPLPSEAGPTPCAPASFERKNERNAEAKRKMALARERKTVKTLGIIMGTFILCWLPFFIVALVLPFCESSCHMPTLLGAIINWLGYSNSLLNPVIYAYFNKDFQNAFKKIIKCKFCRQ
Description: Displacement of [3H] 8-OH-DPAT from 5HT1A receptor in stably transfected CHO cells. It counts as binding. The note with it: CHO cells with human 5HT1A receptors, read-out: 5HT1A Receptor Affinity Ki. The source says: High affinity for the serotonin 5HT1A receptor was established by testing the claimed compound's ability to displace [^3H] 8-OH-DPAT (dipropylamino-tetralin) from the 5HT1A serotonin receptor following a modification of the procedure of Hall, et al., J. Neurochem. 44, 1685 (1985), which utilizes CHO cells stably transfected with human 5HT1A receptors.
In general terms: Displacement assays read how much labelled ligand stays bound in the presence of the test substance.

Test [1] has as its target T3, cloned human 5HT1A receptors (Homo sapiens, UniProt P08908).
T3 construct: expressed in transfected cells
T3 sequence (P08908 1-422): T2 sequence (P08908 1-422)
Description: 35S-GTPγS binding assay, membranes containing cloned human 5HT1A receptors. It counts as biochemical. To be noted: for EC50: given as EC50, increase in 35S-GTPγS binding (agonist), read-out: 5HT1A Function EC50; for Emax: given as Emax, agonist effect, read-out: 5HT1A Function Emax; for IC50: antagonist potency, reversal of the standard agonist 8-OH-DPAT, read-out: 5HT1A Function IC50; for 5HT1A Function (Imax): maximum inhibitory effect, value in parentheses. Here is the method:
Antagonist activity at 5HT1A receptors was established by using a ^35S-GTPγS binding assay similar to that used by Lazareno and Birdsall (Br. J. Pharmacol. 109:1120, 1993), in which the test compound's ability to affect the binding of ^35S-GTPγS to membranes containing cloned human 5HT1A receptors was determined. Agonists produce an increase in binding whereas antagonists produce no increase but rather reverse the effects of the standard agonist 8-OH-DPAT. The test compound's maximum inhibitory effect is represented as the Imax, while its potency is defined by the IC50.
In general terms: Binding of GTPγS marks nucleotide exchange on a G protein.

T1 sequence (P31652 whole entry): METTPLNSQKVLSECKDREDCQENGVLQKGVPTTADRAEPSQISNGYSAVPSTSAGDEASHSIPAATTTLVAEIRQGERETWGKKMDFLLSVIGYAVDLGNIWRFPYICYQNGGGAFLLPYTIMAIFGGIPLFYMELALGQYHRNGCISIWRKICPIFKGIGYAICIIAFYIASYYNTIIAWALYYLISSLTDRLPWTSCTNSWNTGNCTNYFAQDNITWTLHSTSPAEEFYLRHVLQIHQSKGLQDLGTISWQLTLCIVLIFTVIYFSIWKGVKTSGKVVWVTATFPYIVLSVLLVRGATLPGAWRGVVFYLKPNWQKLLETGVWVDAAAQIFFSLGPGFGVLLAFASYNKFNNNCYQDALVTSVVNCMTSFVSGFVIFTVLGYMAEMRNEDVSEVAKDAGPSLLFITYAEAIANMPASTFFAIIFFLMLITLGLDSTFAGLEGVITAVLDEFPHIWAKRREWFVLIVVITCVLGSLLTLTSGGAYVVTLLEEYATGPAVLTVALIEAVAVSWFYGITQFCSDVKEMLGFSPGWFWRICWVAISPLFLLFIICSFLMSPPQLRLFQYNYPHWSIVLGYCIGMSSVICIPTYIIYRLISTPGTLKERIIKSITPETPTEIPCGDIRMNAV

As usually defined, the Ki is a measure of affinity in units of concentration, obtained from inhibition or displacement. What is called EC50 is the concentration giving half of the maximal effect. The Emax is the size of the effect at its maximum, as opposed to the concentration needed. In the case of `Cc1ccc2c3c(ccc2n1)OC[C@H](CN[C@H]1CC[C@@H](c2c[nH]c4ccccc24)C1)O3` (mixture of isomers) [Example 1, N-[(cis)-3-(1H-indol-3-yl)cyclopentyl]-N-{[(2S)-8-methyl-2,3-dihydro[1,4]dioxino[2,3-f]quinolin-2-yl]methyl}amine], the inhibition constant (Ki) on serotonin transporter was found to be 1.25 nM. For the same compound, the inhibition constant (Ki) on human 5HT1A receptors came to 2.56 nM. In addition, in test [1], the concentration giving a half-maximal response (EC50) was determined as 33 nM and the Emax is 38%.

What is called IC50 is the concentration at which inhibition is half-maximal. As for `Cc1ccc2c3c(ccc2n1)OC[C@H](CN[C@H]1CC[C@@H](c2c[nH]c4ccc(F)cc24)C1)O3` (mixture of isomers) [Example 3, N-[(cis)-3-(5-fluoro-1H-indol-3-yl)cyclopentyl]-N-{[(2S)-8-methyl-2,3-dihydro[1,4]dioxino[2,3-f]quinolin-2-yl]methyl}amine], the values for the Ki at serotonin transporter and on human 5HT1A receptors were 0.93 nM and 4.73 nM, respectively. Besides, the IC50 in test [1] turned out to be 83 nM. The 5HT1A Function (Imax) in test [1] is 100%.

As to `Cc1ccc2c3c(ccc2n1)OC[C@H](CN(C)[C@H]1CC[C@@H](c2c[nH]c4ccc(F)cc24)C1)O3` (mixture of isomers) [Example 9, N-[(cis)-3-(5-fluoro-1H-indol-3-yl)cyclopentyl]-N-methyl-N-{[(2S)-8-methyl-2,3-dihydro[1,4]dioxino[2,3-f]quinolin-2-yl]methyl}amine], the inhibitory constant (Ki) at serotonin transporter came out at 0.84 nM. The inhibitory constant (Ki) on human 5HT1A receptors was found to be 5.01 nM. Further, in test [1], the concentration for half-maximal inhibition (IC50) was determined as 242 nM and the 5HT1A Function (Imax) came out at 100%.

For the compound `Cc1ccc2c3c(ccc2n1)OC[C@H](CN(C)[C@@H]1CC[C@H](c2c[nH]c4ccc(F)cc24)C1)O3` (relative stereo) [Example 13, N-[(1R*,3S*)-3-(5-fluoro-1H-indol-3-yl)cyclopentyl]-N-methyl-N-{[(2S)-8-methyl-2,3-dihydro[1,4]dioxino[2,3-f]quinolin-2-yl]methyl}amine], on serotonin transporter, the inhibition constant Ki worked out at 5.45 nM. In addition, on human 5HT1A receptors, the Ki came out at 18.8 nM. Further, in test [1], the 50% inhibitory concentration (IC50) was found to be 494 nM and the 5HT1A Function (Imax) was found to be 100%.

With `Cc1ccc2c3c(ccc2n1)OC[C@H](CN[C@@H]1CC[C@H](c2c[nH]c4ccc(F)cc24)C1)O3` (single isomer, unassigned) [Example 3-Isomer A, N-[(1R*,3S*)-3-(5-fluoro-1H-indol-3-yl)cyclopentyl]-N-{[(2S)-8-methyl-2,3-dihydro[1,4]dioxino[2,3-f]quinolin-2-yl]methyl}amine], the inhibition constant Ki on serotonin transporter came to 0.38 nM. In addition, the Ki on human 5HT1A receptors was 8.73 nM. Also, in test [1], the IC50 was 69 nM and the 5HT1A Function (Imax) amounted to 82%.

On to `Cc1ccc2c3c(ccc2n1)OCC(CNC1CCC(c2c[nH]c4ccc(F)cc24)C1)O3` (single isomer, unassigned) [Example 3-Isomer B, N-[(1S*,3R*)-3-(5-fluoro-1H-indol-3-yl)cyclopentyl]-N-{[(2S)-8-methyl-2,3-dihydror[1,4]dioxino[2,3-f]quinolin-2-yl]methyl}amine], for which, at serotonin transporter, the inhibitory constant (Ki) is 0.33 nM. Also, at human 5HT1A receptors, the inhibition constant (Ki) was 2.03 nM. Further, in test [1], the concentration for half-maximal inhibition (IC50) was found to be 34 nM and the 5HT1A Function (Imax) amounted to 97%.

As for `Cc1ccc2c3c(ccc2n1)OC[C@H](CN[C@H]1CC[C@H](c2c[nH]c4ccc(F)cc24)C1)O3` (single isomer, unassigned) [Example 4-Isomer A, N-[(1S*,3S*)-3-(5-fluoro-1H-indol-3-yl)cyclopentyl]-N-{[(2S)-8-methyl-2,3-dihydro[1,4]dioxino[2,3-f]quinolin-2-yl]methyl}amine], the results for the inhibition constant Ki on serotonin transporter and at human 5HT1A receptors were 0.54 nM and 7.72 nM, respectively. In addition, the IC50 in test [1] is 60 nM. Moreover, the 5HT1A Function (Imax) in test [1] amounted to 56%.

For the compound `Cc1ccc2c3c(ccc2n1)OC[C@H](CN[C@@H]1CC[C@@H](c2c[nH]c4ccc(F)cc24)C1)O3` (single isomer, unassigned) [Example 4-Isomer B, N-[(1R*,3R*)-3-(5-fluoro-1H-indol-3-yl)cyclopentyl]-N-{[(2S)-8-methyl-2,3-dihydro[1,4]dioxino[2,3-f]quinolin-2-yl]methyl}amine], the inhibitory constant (Ki) at serotonin transporter was determined as 0.67 nM. Also, the inhibition constant (Ki) on human 5HT1A receptors came to 26.5 nM. Further, in test [1], the IC50 was 1440 nM and the 5HT1A Function (Imax) is 100%.

`Cc1ccc2c3c(ccc2n1)OCC(CNC1CCC(c2cn(C)c4ccc(F)cc24)C1)O3` (single isomer, unassigned) [Example 5-Isomer A, N-[(1R*,3S*)-3-(5-fluoro-1-methyl-1H-indol-3-yl)cyclopentyl]-N-{](2S)-8-methyl-2,3-dihydro[1,41]dioxino[2,3-f]quinoli-2-yl]methyl}amine]: the figures for the inhibition constant Ki on serotonin transporter and on human 5HT1A receptors were 2.11 nM and 12.5 nM, respectively. In addition, the IC50 in test [1] came out at 190 nM. Moreover, in test [1], the 5HT1A Function (Imax) was determined as 88%.

In the case of `Cc1ccc2c3c(ccc2n1)OCC(CNC1CCC(c2cn(C)c4ccc(F)cc24)C1)O3` (single isomer, unassigned) [Example 5-Isomer B, N-[(1S*,3R*)-3-(5-fluoro-1-methyl-1H-indol-3-yl)cyclopentyl]-N-{[(2S)-8-methyl-2,3-dihydro[1,4]dioxino[2,3-f]quinoli-2-yl]methyl}amine], the inhibition constant (Ki) at serotonin transporter is 3 nM; at human 5HT1A receptors it was 1.91 nM. Also, the concentration for half-maximal inhibition (IC50) in test [1] came to 158 nM. Further, the 5HT1A Function (Imax) in test [1] was found to be 97%.

Consider `Cc1ccc2c3c(ccc2n1)OCC(CNC1CCC(c2cn(C)c4ccc(F)cc24)C1)O3` (single isomer, unassigned) [Example 5], for which the figures for the inhibition constant Ki at serotonin transporter and on human 5HT1A receptors were 3.69 nM and 5.35 nM, respectively. In addition, the IC50 in test [1] was 142 nM. For the same compound, the 5HT1A Function (Imax) in test [1] was 69%.

On to `Cc1ccc2c3c(ccc2n1)OCC(CNC1CCC(c2cn(C)c4ccc(F)cc24)C1)O3` (single isomer, unassigned) [Example 6], for which the inhibition constant (Ki) on serotonin transporter turned out to be 1.67 nM; at human 5HT1A receptors, 20.3 nM. The half-inhibitory concentration (IC50) in test [1] was found to be 228 nM. Besides, the 5HT1A Function (Imax) in test [1] turned out to be 55%.

Regarding `Cc1ccc2c3c(ccc2n1)OCC(CNC1CCC(c2c[nH]c4ccccc24)C1)O3` [Example 2, N-[(trans)-3-(1H-indol-3-yl)cyclopentyl]-N-{[(2S)-8-methyl-2,3-dihydro[1,4]dioxino[2,3-f]quinoli-2-yl]methyl}amine], the Ki at serotonin transporter was 1.69 nM; at human 5HT1A receptors it was 12.8 nM.

On to `Cc1ccc2c3c(ccc2n1)OCC(CNC1CCC(c2c[nH]c4ccc(F)cc24)C1)O3` [Example 4, N-[(trans)-3-(5-fluoro-1H-indol-3-yl)cyclopentyl]-N-{[(2S)-8-methyl-2,3-dihydro[1,4]dioxino[2,3-f]quinoli-2-yl]methyl}amine], for which the Ki worked out at 0.62 nM at serotonin transporter and 9.12 nM on human 5HT1A receptors. Also, the IC50 in test [1] came out at 44 nM. In addition, the 5HT1A Function (Imax) in test [1] was 84%.

Turning to `Cc1ccc2c3c(ccc2n1)OC[C@H](CN[C@H]1CC[C@@H](c2c[nH]c4ccc(F)cc42)CC1)O3` [Example 7, (cis)-N-[4-(5-fluoro-1H-indol-3-yl)cyclohexyl]-N-{[(2S)-8-methyl-2,3-dihydro[1,4]dioxino[2,3-f]quinolin-2-yl]methyl}amine], the Ki at serotonin transporter is 19 nM; on human 5HT1A receptors, 51.7 nM.

Regarding `Cc1ccc2c3c(ccc2n1)OC[C@H](CN[C@H]1CC[C@H](c2c[nH]c4ccc(F)cc42)CC1)O3` [Example 8, (trans)-N-[4-(5-fluoro-1H-indol-3-yl)cyclohexyl]-N-{[(2S)-8-methyl-2,3-dihydro[1,4]dioxino[2,3-f]quinolin-2-yl]methyl}amine], the inhibition constant (Ki) on serotonin transporter came out at 4.16 nM. For the same compound, the inhibition constant Ki on human 5HT1A receptors came out at 14.6 nM. In addition, in test [1], the 50% effective concentration (EC50) is 66 nM and the maximal effect (Emax) stood at 95%.
